Source: US12493040B2, “Cancer detection method using sense of smell of nematode” (HIROTSU BIO SCIENCE INC., priority 2013, dated 2025)

Test system: RNAi-treated eri-1 (mg366) nematodes
Test: RNAi screening of olfactory receptor genes: chemotaxis assay of RNAi-treated nematodes to odorants
Assay type: in vivo, Caenorhabditis elegans
Conditions: low concentration of attractant
Summary of the method: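 eri-1 (mg366) worms knocked down by feeding RNAi (Ahringer library) on IPTG/ampicillin NGM plates with E. coli for 4 days, then tested for chemotaxis, 30–50 worms per assay. Odorants at 1 μl of 10^−3 or 10^−4 dilution, or 1 and 5 μl undiluted. Hits scored by z score, thresholds ±1.96 (P<0.05) or ±0.96.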

`CCC(=O)C(C)=O` [pentanedione] was tested, and the chemotaxis index (Control nematodes) was 0.49 ± 0.020, the chemotaxis index (srh-10 RNAi-treated nematodes) was 0.68 and the chemotaxis index (srh-11 RNAi-treated nematodes) was 0.75. For the same compound, the chemotaxis index (srh-15 RNAi-treated nematodes) was 0.44, the chemotaxis index (srh-16 RNAi-treated nematodes) was 0.95 and the chemotaxis index (srh-18 RNAi-treated nematodes) was 0.96. For the same compound, the chemotaxis index (srh-19 RNAi-treated nematodes) was 0.64, the chemotaxis index (srh-22 RNAi-treated nematodes) was 0.42 and the chemotaxis index (srh-23 RNAi-treated nematodes) was 0.48. For the same compound, the chemotaxis index (srh-24 RNAi-treated nematodes) was 0.59, the chemotaxis index (srh-25 RNAi-treated nematodes) was 0.95 and the chemotaxis index (srh-27 RNAi-treated nematodes) was 0.27. It also gave a chemotaxis index (srh-28 RNAi-treated nematodes) of 0.22, a chemotaxis index (srh-36 RNAi-treated nematodes) of 0.26 and a chemotaxis index (srh-37 RNAi-treated nematodes) of 0.60. The chemotaxis index (srh-39 RNAi-treated nematodes) was −0.24, the chemotaxis index (srh-40 RNAi-treated nematodes) was 0.47 and the chemotaxis index (srh-41 RNAi-treated nematodes) was 0.57. For the same compound, the chemotaxis index (srh-44 RNAi-treated nematodes) was 0.52, the chemotaxis index (srh-45 RNAi-treated nematodes) was 0.26 and the chemotaxis index (srh-46 RNAi-treated nematodes) was 0.03. The chemotaxis index (srh-48 RNAi-treated nematodes) was 0.38, the chemotaxis index (srh-49 RNAi-treated nematodes) was 0.60 and the chemotaxis index (srh-50 RNAi-treated nematodes) was 0.53. For the same compound, the chemotaxis index (srh-51 RNAi-treated nematodes) was 0.63, the chemotaxis index (srh-52 RNAi-treated nematodes) was 0.51 and the chemotaxis index (srh-55 RNAi-treated nematodes) was 0.49. The chemotaxis index (srh-59 RNAi-treated nematodes) was −0.14, the chemotaxis index (srh-60 RNAi-treated nematodes) was 0.22 and the chemotaxis index (srh-61 RNAi-treated nematodes) was 0.40. The chemotaxis index (srh-67 RNAi-treated nematodes) was 0.41, the chemotaxis index (srh-68 RNAi-treated nematodes) was 0.21 and the chemotaxis index (srh-69 RNAi-treated nematodes) was 0.13. It also gave a chemotaxis index (srh-70 RNAi-treated nematodes) of 0.25, a chemotaxis index (srh-71 RNAi-treated nematodes) of 0.14 and a chemotaxis index (srh-72 RNAi-treated nematodes) of 0.29. It also gave a chemotaxis index (srh-74 RNAi-treated nematodes) of 0.42, a chemotaxis index (srh-75 RNAi-treated nematodes) of 0.53 and a chemotaxis index (srh-77 RNAi-treated nematodes) of 0.32. The chemotaxis index (srh-79 RNAi-treated nematodes) was 0.53, the chemotaxis index (srh-80 RNAi-treated nematodes) was 0.41 and the chemotaxis index (srh-82 RNAi-treated nematodes) was 0.49. The chemotaxis index (srh-83 RNAi-treated nematodes) was 0.72, the chemotaxis index (srh-97 RNAi-treated nematodes) was 0.74 and the chemotaxis index (srh-99 RNAi-treated nematodes) was 0.54. For the same compound, the chemotaxis index (srh-100 RNAi-treated nematodes) was 0.35, the chemotaxis index (srh-104 RNAi-treated nematodes) was −0.30 and the chemotaxis index (srh-105 RNAi-treated nematodes) was 0.27. It also gave a chemotaxis index (srh-109 RNAi-treated nematodes) of 0.65, a chemotaxis index (srh-111 RNAi-treated nematodes) of 0.39 and a chemotaxis index (srh-113 RNAi-treated nematodes) of 0.14. For the same compound, the chemotaxis index (srh-115 RNAi-treated nematodes) was 0.39, the chemotaxis index (srh-116 RNAi-treated nematodes) was 0.22 and the chemotaxis index (srh-118 RNAi-treated nematodes) was 0.44. For the same compound, the chemotaxis index (srh-119 RNAi-treated nematodes) was 0.18, the chemotaxis index (srh-120 RNAi-treated nematodes) was 0.80 and the chemotaxis index (srh-122 RNAi-treated nematodes) was 0.24. For the same compound, the chemotaxis index (srh-123 RNAi-treated nematodes) was 0.30, the chemotaxis index (srh-125 RNAi-treated nematodes) was 0.08 and the chemotaxis index (srh-128 RNAi-treated nematodes) was 0.49. For the same compound, the chemotaxis index (srh-129 RNAi-treated nematodes) was 0.15, the chemotaxis index (srh-130 RNAi-treated nematodes) was 0.36 and the chemotaxis index (srh-214 RNAi-treated nematodes) was 0.88. The chemotaxis index (srh-216 RNAi-treated nematodes) was 0.65, the chemotaxis index (srh-217 RNAi-treated nematodes) was 0.92 and the chemotaxis index (srh-220 RNAi-treated nematodes) was 0.67. For the same compound, the chemotaxis index (srh-222 RNAi-treated nematodes) was 0.46, the chemotaxis index (srh-223 RNAi-treated nematodes) was 0.23 and the chemotaxis index (srh-227 RNAi-treated nematodes) was 0.60. The chemotaxis index (srh-229 RNAi-treated nematodes) was 0.12, the chemotaxis index (srh-233 RNAi-treated nematodes) was 0.33 and the chemotaxis index (srh-235 RNAi-treated nematodes) was 0.51. It also gave a chemotaxis index (srh-236 RNAi-treated nematodes) of 0.37, a chemotaxis index (srh-239 RNAi-treated nematodes) of 0.49 and a chemotaxis index (srh-241 RNAi-treated nematodes) of 0.63. For the same compound, the chemotaxis index (srh-243 RNAi-treated nematodes) was 0.00, the chemotaxis index (srh-244 RNAi-treated nematodes) was 0.19 and the chemotaxis index (srh-247 RNAi-treated nematodes) was 0.38. It also gave a chemotaxis index (srh-250 RNAi-treated nematodes) of 0.58, a chemotaxis index (srh-251 RNAi-treated nematodes) of 0.32 and a chemotaxis index (srh-252 RNAi-treated nematodes) of 0.65. It also gave a chemotaxis index (srh-258 RNAi-treated nematodes) of 0.35, a chemotaxis index (srh-261 RNAi-treated nematodes) of 0.27 and a chemotaxis index (srh-264 RNAi-treated nematodes) of 0.46. For the same compound, the chemotaxis index (srh-266 RNAi-treated nematodes) was 0.00, the chemotaxis index (srh-274 RNAi-treated nematodes) was 0.82 and the chemotaxis index (srh-275 RNAi-treated nematodes) was 0.57. It also gave a chemotaxis index (srh-276 RNAi-treated nematodes) of 0.45, a chemotaxis index (srh-277 RNAi-treated nematodes) of 0.83 and a chemotaxis index (srh-279 RNAi-treated nematodes) of 0.55. The chemotaxis index (srh-281 RNAi-treated nematodes) was 0.64, the chemotaxis index (srh-282 RNAi-treated nematodes) was 0.73 and the chemotaxis index (srh-283 RNAi-treated nematodes) was 0.15. For the same compound, the chemotaxis index (srh-284 RNAi-treated nematodes) was 0.36, the chemotaxis index (srh-291 RNAi-treated nematodes) was 0.48 and the chemotaxis index (srh-292 RNAi-treated nematodes) was 0.52. It also gave a chemotaxis index (srh-293 RNAi-treated nematodes) of 0.00, a chemotaxis index (srh-297 RNAi-treated nematodes) of 0.32 and a chemotaxis index (srh-298 RNAi-treated nematodes) of 0.68. The chemotaxis index (srh-308 RNAi-treated nematodes) was 0.39.
